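Five concentrations, 48 hours, 96-well plates. TGI: concentration producing complete growth inhibition.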
Legend:
Test in all cases: DTP human tumour cell line panel, 48 h
UO-31 renal = tested on: UO-31 renal
SF-539 CNS = tested on: SF-539 CNS
786-0 renal = tested on: 786-0 renal
TK-10 renal = tested on: TK-10 renal
IGROV1 ovarian = tested on: IGROV1 ovarian
MDA-MB-231 breast = tested on: MDA-MB-231 breast
HT29 colon = tested on: HT29 colon
U251 CNS = tested on: U251 CNS
MALME-3M melanoma = tested on: MALME-3M melanoma
MDA-MB-435 = tested on: MDA-MB-435
HL-60(TB) leukemia = tested on: HL-60(TB) leukemia
MOLT-4 leukemia = tested on: MOLT-4 leukemia
OVCAR-5 ovarian = tested on: OVCAR-5 ovarian
UACC-257 melanoma = tested on: UACC-257 melanoma
M14 melanoma = tested on: M14 melanoma
MDA-N = tested on: MDA-N
SK-OV-3 ovarian = tested on: SK-OV-3 ovarian
DU-145 prostate = tested on: DU-145 prostate
SNB-19 CNS = tested on: SNB-19 CNS
NCI-H23 lung = tested on: NCI-H23 lung
PC-3 prostate = tested on: PC-3 prostate
NCI/ADR-RES ovarian = tested on: NCI/ADR-RES ovarian
BT-549 breast = tested on: BT-549 breast
OVCAR-8 ovarian = tested on: OVCAR-8 ovarian
A549 NSCLC = tested on: A549 NSCLC
SK-MEL-5 melanoma = tested on: SK-MEL-5 melanoma
KM12 colon = tested on: KM12 colon
OVCAR-4 ovarian = tested on: OVCAR-4 ovarian
HOP-92 NSCLC = tested on: HOP-92 NSCLC
SR leukemia = tested on: SR leukemia
NCI-H226 lung = tested on: NCI-H226 lung
LOX IMVI melanoma = tested on: LOX IMVI melanoma
MCF7 breast = tested on: MCF7 breast
COLO 205 colon = tested on: COLO 205 colon
HCC-2998 colon = tested on: HCC-2998 colon
SN12C renal = tested on: SN12C renal
HCT-15 colon = tested on: HCT-15 colon
RPMI-8226 leukemia = tested on: RPMI-8226 leukemia
NCI-H460 lung = tested on: NCI-H460 lung
NCI-H522 lung = tested on: NCI-H522 lung
SK-MEL-2 melanoma = tested on: SK-MEL-2 melanoma
RXF 393 renal = tested on: RXF 393 renal
SK-MEL-28 melanoma = tested on: SK-MEL-28 melanoma
OVCAR-3 ovarian = tested on: OVCAR-3 ovarian
SW-620 colon = tested on: SW-620 colon
SF-295 CNS = tested on: SF-295 CNS
HOP-62 NSCLC = tested on: HOP-62 NSCLC
EKVX NSCLC = tested on: EKVX NSCLC
SF-268 CNS = tested on: SF-268 CNS
CCRF-CEM leukemia = tested on: CCRF-CEM leukemia
T-47D breast = tested on: T-47D breast
K-562 leukemia = tested on: K-562 leukemia
SNB-75 CNS = tested on: SNB-75 CNS
CAKI-1 renal = tested on: CAKI-1 renal
HCT-116 colon = tested on: HCT-116 colon
A498 renal = tested on: A498 renal
HS 578T breast = tested on: HS 578T breast
ACHN renal = tested on: ACHN renal
UACC-62 melanoma = tested on: UACC-62 melanoma

C=C1C(=O)OC2/C=C(\CO)CC/C=C(\CO)CC(OC(=O)C(C)C)C12 (configuration not stated)
TGI (UO-31 renal): 27.4 µM
TGI (SF-539 CNS): 29 µM
TGI (786-0 renal): 20.2 µM
TGI (TK-10 renal): 15.6 µM
TGI (IGROV1 ovarian): 33.6 µM
TGI (MDA-MB-231 breast): 38 µM
TGI (HT29 colon): 30 µM
TGI (U251 CNS): 43.3 µM
TGI (MALME-3M melanoma): 4.45 µM
TGI (MDA-MB-435): 29.5 µM
TGI (HL-60(TB) leukemia): > 24.8 µM
TGI (MOLT-4 leukemia): > 27.4 µM
TGI (OVCAR-5 ovarian): 29.8 µM
TGI (UACC-257 melanoma): 27 µM
TGI (M14 melanoma): 19.9 µM
TGI (MDA-N): 17.9 µM
TGI (SK-OV-3 ovarian): > 55.9 µM
TGI (DU-145 prostate): 29.5 µM
TGI (SNB-19 CNS): 45.9 µM
TGI (NCI-H23 lung): 38.5 µM
TGI (PC-3 prostate): 31.1 µM
TGI (NCI/ADR-RES ovarian): 45.3 µM
TGI (BT-549 breast): 23.4 µM
TGI (OVCAR-8 ovarian): 45.7 µM
TGI (A549 NSCLC): 37 µM
TGI (SK-MEL-5 melanoma): 36 µM
TGI (KM12 colon): 33.5 µM
TGI (OVCAR-4 ovarian): 44 µM
TGI (HOP-92 NSCLC): 4.13 µM
TGI (SR leukemia): > 52.1 µM
TGI (NCI-H226 lung): 34.2 µM
TGI (LOX IMVI melanoma): 45.8 µM
TGI (MCF7 breast): 8.85 µM
TGI (COLO 205 colon): 4.18 µM
TGI (HCC-2998 colon): 37.2 µM
TGI (SN12C renal): 26.1 µM
TGI (HCT-15 colon): 11.6 µM
TGI (RPMI-8226 leukemia): 25.5 µM
TGI (NCI-H460 lung): 38.6 µM
TGI (NCI-H522 lung): 4.11 µM
TGI (SK-MEL-2 melanoma): 30.8 µM
TGI (RXF 393 renal): 19.3 µM
TGI (SK-MEL-28 melanoma): 42.4 µM
TGI (OVCAR-3 ovarian): 23.9 µM
TGI (SW-620 colon): 22.9 µM
TGI (SF-295 CNS): 45.5 µM
TGI (HOP-62 NSCLC): 36.3 µM
TGI (EKVX NSCLC): 38.8 µM
TGI (SF-268 CNS): 19.8 µM
TGI (CCRF-CEM leukemia): > 33.2 µM
TGI (T-47D breast): 24.8 µM
TGI (K-562 leukemia): > 24.2 µM
TGI (SNB-75 CNS): 32.2 µM
TGI (CAKI-1 renal): 3.31 µM
TGI (HCT-116 colon): 47.9 µM
TGI (A498 renal): 59.2 µM
TGI (HS 578T breast): 49 µM
TGI (ACHN renal): 3.54 µM
TGI (UACC-62 melanoma): 29.4 µM

COC(=O)c1cccc(OC)c1C#Cc1c(OC)cccc1OC
TGI (UO-31 renal): > 100 µM
TGI (SF-539 CNS): > 100 µM
TGI (786-0 renal): > 100 µM
TGI (TK-10 renal): > 100 µM
TGI (IGROV1 ovarian): > 100 µM
TGI (MDA-MB-231 breast): > 100 µM
TGI (HT29 colon): > 100 µM
TGI (U251 CNS): > 100 µM
TGI (MALME-3M melanoma): > 100 µM
TGI (MDA-MB-435): > 100 µM
TGI (HL-60(TB) leukemia): > 100 µM
TGI (MOLT-4 leukemia): > 100 µM
TGI (OVCAR-5 ovarian): > 100 µM
TGI (UACC-257 melanoma): > 100 µM
TGI (M14 melanoma): > 100 µM
TGI (MDA-N): > 100 µM
TGI (SK-OV-3 ovarian): > 100 µM
TGI (DU-145 prostate): > 100 µM
TGI (SNB-19 CNS): > 100 µM
TGI (NCI-H23 lung): > 100 µM
TGI (PC-3 prostate): > 100 µM
TGI (NCI/ADR-RES ovarian): > 100 µM
TGI (BT-549 breast): > 100 µM
TGI (OVCAR-8 ovarian): > 100 µM
TGI (A549 NSCLC): > 100 µM
TGI (SK-MEL-5 melanoma): > 100 µM
TGI (KM12 colon): > 100 µM
TGI (OVCAR-4 ovarian): > 100 µM
TGI (HOP-92 NSCLC): > 100 µM
TGI (SR leukemia): > 100 µM
TGI (NCI-H226 lung): > 100 µM
TGI (LOX IMVI melanoma): > 100 µM
TGI (MCF7 breast): > 100 µM
TGI (COLO 205 colon): > 100 µM
TGI (HCC-2998 colon): > 100 µM
TGI (SN12C renal): > 100 µM
TGI (HCT-15 colon): > 100 µM
TGI (RPMI-8226 leukemia): > 100 µM
TGI (NCI-H460 lung): > 100 µM
TGI (NCI-H522 lung): > 100 µM
TGI (SK-MEL-2 melanoma): > 100 µM
TGI (RXF 393 renal): > 100 µM
TGI (SK-MEL-28 melanoma): > 100 µM
TGI (OVCAR-3 ovarian): > 100 µM
TGI (SW-620 colon): > 100 µM
TGI (SF-295 CNS): > 100 µM
TGI (HOP-62 NSCLC): > 100 µM
TGI (EKVX NSCLC): > 100 µM
TGI (SF-268 CNS): > 100 µM
TGI (CCRF-CEM leukemia): > 100 µM
TGI (T-47D breast): > 100 µM
TGI (K-562 leukemia): > 100 µM
TGI (SNB-75 CNS): > 100 µM
TGI (CAKI-1 renal): > 100 µM
TGI (HCT-116 colon): > 100 µM
TGI (A498 renal): > 100 µM
TGI (HS 578T breast): > 100 µM
TGI (ACHN renal): > 100 µM
TGI (UACC-62 melanoma): > 100 µM

COC(=O)C1=CON2C3CC4CC(C3)CC(C4)C12C (configuration not stated)
TGI (UO-31 renal): > 100 µM
TGI (SF-539 CNS): > 100 µM
TGI (786-0 renal): > 100 µM
TGI (TK-10 renal): > 100 µM
TGI (IGROV1 ovarian): > 100 µM
TGI (MDA-MB-231 breast): > 100 µM
TGI (HT29 colon): > 100 µM
TGI (U251 CNS): > 100 µM
TGI (MALME-3M melanoma): > 100 µM
TGI (MDA-MB-435): > 100 µM
TGI (HL-60(TB) leukemia): > 100 µM
TGI (MOLT-4 leukemia): > 100 µM
TGI (OVCAR-5 ovarian): > 100 µM
TGI (UACC-257 melanoma): > 100 µM
TGI (M14 melanoma): > 100 µM
TGI (MDA-N): > 100 µM
TGI (SK-OV-3 ovarian): > 100 µM
TGI (DU-145 prostate): > 100 µM
TGI (SNB-19 CNS): > 100 µM
TGI (NCI-H23 lung): > 100 µM
TGI (PC-3 prostate): > 100 µM
TGI (NCI/ADR-RES ovarian): > 100 µM
TGI (BT-549 breast): > 100 µM
TGI (OVCAR-8 ovarian): > 100 µM
TGI (A549 NSCLC): > 100 µM
TGI (SK-MEL-5 melanoma): > 100 µM
TGI (KM12 colon): > 100 µM
TGI (OVCAR-4 ovarian): > 100 µM
TGI (HOP-92 NSCLC): > 100 µM
TGI (SR leukemia): > 100 µM
TGI (NCI-H226 lung): > 100 µM
TGI (LOX IMVI melanoma): > 100 µM
TGI (MCF7 breast): > 100 µM
TGI (COLO 205 colon): > 100 µM
TGI (HCC-2998 colon): > 100 µM
TGI (SN12C renal): > 100 µM
TGI (HCT-15 colon): > 100 µM
TGI (RPMI-8226 leukemia): > 100 µM
TGI (NCI-H460 lung): > 100 µM
TGI (NCI-H522 lung): > 100 µM
TGI (SK-MEL-2 melanoma): > 100 µM
TGI (RXF 393 renal): > 100 µM
TGI (SK-MEL-28 melanoma): > 100 µM
TGI (OVCAR-3 ovarian): > 100 µM
TGI (SW-620 colon): > 100 µM
TGI (SF-295 CNS): > 100 µM
TGI (HOP-62 NSCLC): > 100 µM
TGI (EKVX NSCLC): > 100 µM
TGI (SF-268 CNS): > 100 µM
TGI (CCRF-CEM leukemia): > 100 µM
TGI (T-47D breast): > 100 µM
TGI (K-562 leukemia): > 100 µM
TGI (SNB-75 CNS): > 100 µM
TGI (CAKI-1 renal): > 100 µM
TGI (HCT-116 colon): > 100 µM
TGI (A498 renal): > 100 µM
TGI (HS 578T breast): > 100 µM
TGI (ACHN renal): > 100 µM
TGI (UACC-62 melanoma): > 100 µM

— PubChem BioAssay (NCI)
